Experimental data taken from patent US10633348B2, “Methods to treat lymphoplasmacytic lymphoma” (Dana-Farber Cancer Institute, Inc., priority 2013, dated 2020).
Like-named read-outs stand apart in the source and are kept apart here.

Assays:
Type in all cases: cell-based
NEK3 = test system: NEK3
ARAF = test system: ARAF
CAMK1D = test system: CAMK1D
MLK4 = test system: MLK4
GCK = test system: GCK
p38d, p38g = assay: KiNativ kinase profiling in A375 cells; settings: Lys2, SEQ ID NO 130, 1.0 μM
RSKL1 = test system: RSKL1
ROCK1, ROCK2 = assay: KiNativ kinase profiling in A375 cells; settings: Lys2, SEQ ID NO 163, 1.0 μM
MAP3K1 = test system: MAP3K1
JAK3 domain2 = test system: JAK3 domain2
WEE1 = test system: WEE1
ILK = test system: ILK
RIPK3 = test system: RIPK3
LCK = test system: LCK
ULK1 = test system: ULK1
MER = test system: MER
CHK2 = test system: CHK2
PIK3C3 = test system: PIK3C3
KSR1, KSR2 = assay: KiNativ kinase profiling in A375 cells; settings: Activation Loop, SEQ ID NO 70, 1.0 μM
MAP3K2 = test system: MAP3K2
RSK2 domain2 = test system: RSK2 domain2
LOK = test system: LOK
NEK4 = test system: NEK4
SYK = test system: SYK
CAMK2G = test system: CAMK2G
PCTAIRE2, PCTAIRE3 = assay: KiNativ kinase profiling in A375 cells; settings: Lys1, SEQ ID NO 135, 1.0 μM
ULK3 = test system: ULK3
ZC2/TNIK = test system: ZC2/TNIK
TBK1 = test system: TBK1
p70S6K = test system: p70S6K
DGKA = test system: DGKA
PLK1 = test system: PLK1
MAST3 = test system: MAST3
PIP4K2C = test system: PIP4K2C
PIK3CB = test system: PIK3CB
BTK-pY223 = assay: PhosFlow; settings: BCWM.1, Hck-wt and Hck-mu BCWM.1 cells; 0.5 μM and 0.1 μM
Method: PhosFlow was performed to detect levels of phosphorylation for BTK-pY223 (BD Biosciences) and Hck-pY410 (Abcam) in BCWM.1 cells, in BCWM cells that stably overexpress HCK (BCWM.1_HCK-wt) and in BCWM.1 cells that stably overexpress the T338M mutant of HCK (BCWM.1_HCK-mu). Cells were fixed with BD Phosflow Fix Buffer I (BD Biosciences) at 37° C. for 10 min, then washed twice with BD Phosflow Perm/Wash Buffer I (BD Biosciences). Cells were suspended in BD Phosflow Perm/Wash Buffer I at 10 million/ml and antibodies aliquoted to flow tubes with 100 μl cells. Cells were incubated at room temperature for 30 min in the dark. Cells were washed twice with BD Phosflow Perm/Wash Buffer I before performing flow analysis using a BD™ FACSCanto II flow cytometer.

[1] = test system: 260 kinases in A375 cells; settings: 1.0 μM

## CCN1CCN(Cc2ccc(NC(=O)c3ccc(C)c(Oc4cc(N)ncn4)c3)cc2C(F)(F)F)CC1 [(A-4), 3-((6-aminopyrimidin-4-yl)oxy)-N-(4-((4-ethylpiperazin-1-yl)methyl)-3-(trifluoromethyl)phenyl)-4-methylbenzamide]
NEK3
  inhibition of kinase labeling: 13.1%
ARAF
  inhibition of kinase labeling: 12.2%
CAMK1D
  inhibition of kinase labeling: −6.0%
MLK4
  inhibition of kinase labeling: −1.7%
GCK
  inhibition of kinase labeling: 94.9%
p38d, p38g
  inhibition of kinase labeling: 62.5%
RSKL1
  inhibition of kinase labeling: 31.5%
ROCK1, ROCK2
  inhibition of kinase labeling: 22.0%
MAP3K1
  inhibition of kinase labeling: 26.9%
JAK3 domain2
  inhibition of kinase labeling: 7.7%
WEE1
  inhibition of kinase labeling: 23.2%
ILK
  inhibition of kinase labeling: 5.2%
RIPK3
  inhibition of kinase labeling: 32.6%
LCK
  inhibition of kinase labeling: 92.3%
ULK1
  inhibition of kinase labeling: −6.0%
MER
  inhibition of kinase labeling: 49.8%
CHK2
  inhibition of kinase labeling: −7.8%
PIK3C3
  inhibition of kinase labeling: −5.1%
KSR1, KSR2
  inhibition of kinase labeling: −10.0%
MAP3K2
  inhibition of kinase labeling: 4.2%
RSK2 domain2
  inhibition of kinase labeling: −24.1%
LOK
  inhibition of kinase labeling: 19.9%
NEK4
  inhibition of kinase labeling: 1.5%
SYK
  inhibition of kinase labeling: 17.4%
CAMK2G
  inhibition of kinase labeling: −23.1%
PCTAIRE2, PCTAIRE3
  inhibition of kinase labeling: 11.7%
ULK3
  inhibition of kinase labeling: −4.4%
ZC2/TNIK
  inhibition of kinase labeling: 23.9%
TBK1
  inhibition of kinase labeling: 18.2%
p70S6K
  inhibition of kinase labeling: −2.3%
DGKA
  inhibition of kinase labeling: −4.8%
PLK1
  inhibition of kinase labeling: −9.1%
MAST3
  inhibition of kinase labeling: −8.1%
PIP4K2C
  inhibition of kinase labeling: 5.2%
PIK3CB
  inhibition of kinase labeling: 27.8%

## CCN1CCN(Cc2ccc(NC(=O)c3ccc(C)c(Oc4ccnc(Nc5cnn(C)c5)n4)c3)cc2C(F)(F)F)CC1 [(A-14), N-(4-((4-ethylpiperazin-1-yl)methyl)-3-(trifluoromethyl)phenyl)-4-methyl-3-((2-((1-methyl-1H-pyrazol-4-yl)amino)pyrimidin-4-yl)oxy)benzamide]
BTK-pY223
  BTK phosphorylation: inhibit
[1]; AKT2, AKT3, ATP Loop, SEQ ID NO 204
  KiNativ inhibition: −19.7%
[1]; AMPKa1, AMPKa2, Lys2, SEQ ID NO 205
  KiNativ inhibition: −17.5%
[1]; AurA, AurB, AurC, ATP Loop, SEQ ID NO 211
  KiNativ inhibition: −2.4%
[1]; CDK11, CDK8, Lys2, SEQ ID NO 224
  KiNativ inhibition: 49.2%
[1]; CK1g1, CK1g2, CK1g3, ATP Loop, SEQ ID NO 235
  KiNativ inhibition: 1.3%
[1]; CK1d, CK1e, Lys2, SEQ ID NO 234
  KiNativ inhibition: −9.3%
[1]; JNK1, JNK2, JNK3, Lys2, SEQ ID NO 276
  KiNativ inhibition: 31.5%
[1]; KSR1, KSR2, Activation Loop, SEQ ID NO 280
  KiNativ inhibition: 1.4%
[1]; MAP2K1, MAP2K2, Lys1, SEQ ID NO 289
  KiNativ inhibition: 9.4%
[1]; MAP2K1, MAP2K2, Lys2, SEQ ID NO 290
  KiNativ inhibition: 2.2%
[1]; MAP3K2, MAP3K3, Lys2, SEQ ID NO 299
  KiNativ inhibition: 8.4%
[1]; MARK2, MARK3, Lys2, SEQ ID NO 304
  KiNativ inhibition: −15.6%
[1]; MARK3, MARK4, Lys1, SEQ ID NO 306
  KiNativ inhibition: −7.5%
[1]; MAST1, MAST2, Lys2, SEQ ID NO 308
  KiNativ inhibition: −24.8%
[1]; MER, TYRO3, Activation Loop, SEQ ID NO 313
  KiNativ inhibition: 21.2%
[1]; MST4, YSK1, Lys2, SEQ ID NO 325
  KiNativ inhibition: −2.4%
[1]; MYO3A, MYO3B, Lys2, SEQ ID NO 326
  KiNativ inhibition: 22.9%
[1]; NEK6, NEK7, Lys2, SEQ ID NO 333
  KiNativ inhibition: −1.8%
[1]; PCTAIRE2, PCTAIRE3, Lys1, SEQ ID NO 346
  KiNativ inhibition: 72.9%
[1]; PI4KA, PI4KAP2, ATP, SEQ ID NO 353
  KiNativ inhibition: 2.1%
[1]; PKCa, PKCb, Lys2, SEQ ID NO 364
  KiNativ inhibition: −86.4%
[1]; ROCK1, ROCK2, Lys2, SEQ ID NO 377
  KiNativ inhibition: −0.2%
[1]; RSK1 domain1, RSK2 domain1, RSK3 domain1, Lys2, SEQ ID NO 379
  KiNativ inhibition: −25.1%
[1]; SRPK1, SRPK2, Lys1, SEQ ID NO 391
  KiNativ inhibition: −38.7%
[1]; TAO1, TAO3, Lys2, SEQ ID NO 396
  KiNativ inhibition: 87.1%
[1]; Wnk1, Wnk2, Wnk3, Lys2, SEQ ID NO 406
  KiNativ inhibition: −1.1%
[1]; Wnk1, Wnk2, ATP Loop, SEQ ID NO 405
  KiNativ inhibition: 11.2%
[1]; ZC1/HGK, ZC2/TNIK, ZC3/MINK, Lys2, SEQ ID NO 410
  KiNativ inhibition: 57.5%
[1]; p38d, p38g, Lys2, SEQ ID NO 341
  KiNativ inhibition: 51.5%
